Laboratory results: ChEMBL document CHEMBL1125986, “()-2-amino-2-thiazoline-4-ethanoic acid; a novel, specific GABAA receptor agonist” (Bioorg Med Chem Lett, 1991)

Experiments:
[1] = biological target: GABA-A receptor; anion channel; experiment: Effective concentration for stimulation of [3H]diazepam binding to rat cortical membranes; assay type: functional, cell membranes, Membrane
[2] = biological target: GABA-A receptor; anion channel; experiment: Inhibition of [3H]-GABA binding to GABA-A receptor in rat cerebral cortex homogenates; assay type: tissue-based
[3] = biological target: GABA-A receptor; anion channel (Rattus norvegicus) (UniProt O09028+P15431+P18506+P18508+P19969+P20236+P23574+P23576+P28471+P28473+P30191+P62813+P63079+P63138+Q91ZM7+Q9ES14); experiment: Enhanced [3H]benzodiazepine binding in rat cortical membranes at 100 uM; assay type: cell membranes
[4] = organism: Rattus norvegicus; experiment: Tested for inhibition of CA1 population spike in rat hippocampal slice by electrophysiological experiment; assay type: functional; settings: Hippocampus

Row | EC50 [1] [µM] | IC50 [2] [µM] | Activity [3] [%] | EC50 [4] [µM] | Compound
1 | 3.1 | 0.49 | 156 | 13 | O=C(O)C1=CCNCC1 [ISOGUVACINE]
2 | 3.4 | 0.5 | 142 | 28.3 | NC1=NC(CC(=O)O)CS1 (centres undefined)

Row | Compound | EC50 [1] [µM] | IC50 [2] [µM] | Activity [3] [%] | EC50 [4] [µM]
3 | Oc1noc2c1CCNC2 [GABOXADOL] |  |  |  | 55
